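Five compound concentrations were applied to cells in 96-well plates for 48 hours; endpoints were derived by simple linear interpolation of the resulting dose-response curve. TGI marks complete inhibition of growth.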
Experiments:
Assay in all cases: inhibition of tumour cell growth, NCI panel, 48 h
786-0 renal = test system: 786-0 renal
A498 renal = test system: A498 renal
A549 NSCLC = test system: A549 NSCLC
ACHN renal = test system: ACHN renal
BT-549 breast = test system: BT-549 breast
CAKI-1 renal = test system: CAKI-1 renal
CCRF-CEM leukemia = test system: CCRF-CEM leukemia
COLO 205 colon = test system: COLO 205 colon
DU-145 prostate = test system: DU-145 prostate
EKVX NSCLC = test system: EKVX NSCLC
HCC-2998 colon = test system: HCC-2998 colon
HCT-116 colon = test system: HCT-116 colon
HCT-15 colon = test system: HCT-15 colon
HL-60(TB) leukemia = test system: HL-60(TB) leukemia
HOP-62 NSCLC = test system: HOP-62 NSCLC
HS 578T breast = test system: HS 578T breast
HT29 colon = test system: HT29 colon
IGROV1 ovarian = test system: IGROV1 ovarian
K-562 leukemia = test system: K-562 leukemia
KM12 colon = test system: KM12 colon
LOX IMVI melanoma = test system: LOX IMVI melanoma
M14 melanoma = test system: M14 melanoma
MALME-3M melanoma = test system: MALME-3M melanoma
MCF7 breast = test system: MCF7 breast
MDA-MB-231 breast = test system: MDA-MB-231 breast
MDA-MB-435 = test system: MDA-MB-435
MDA-N = test system: MDA-N
MOLT-4 leukemia = test system: MOLT-4 leukemia
NCI-H226 lung = test system: NCI-H226 lung
NCI-H23 lung = test system: NCI-H23 lung
NCI-H460 lung = test system: NCI-H460 lung
NCI-H522 lung = test system: NCI-H522 lung
NCI/ADR-RES ovarian = test system: NCI/ADR-RES ovarian
OVCAR-3 ovarian = test system: OVCAR-3 ovarian
OVCAR-4 ovarian = test system: OVCAR-4 ovarian
OVCAR-5 ovarian = test system: OVCAR-5 ovarian
OVCAR-8 ovarian = test system: OVCAR-8 ovarian
PC-3 prostate = test system: PC-3 prostate
RPMI-8226 leukemia = test system: RPMI-8226 leukemia
SF-268 CNS = test system: SF-268 CNS
SF-295 CNS = test system: SF-295 CNS
SF-539 CNS = test system: SF-539 CNS
SK-MEL-2 melanoma = test system: SK-MEL-2 melanoma
SK-MEL-28 melanoma = test system: SK-MEL-28 melanoma
SK-MEL-5 melanoma = test system: SK-MEL-5 melanoma
SK-OV-3 ovarian = test system: SK-OV-3 ovarian
SN12C renal = test system: SN12C renal
SNB-19 CNS = test system: SNB-19 CNS
SNB-75 CNS = test system: SNB-75 CNS
SR leukemia = test system: SR leukemia
SW-620 colon = test system: SW-620 colon
T-47D breast = test system: T-47D breast
TK-10 renal = test system: TK-10 renal
U251 CNS = test system: U251 CNS
UACC-257 melanoma = test system: UACC-257 melanoma
UACC-62 melanoma = test system: UACC-62 melanoma
UO-31 renal = test system: UO-31 renal
HOP-92 NSCLC = test system: HOP-92 NSCLC
RXF 393 renal = test system: RXF 393 renal

COC(=O)c1c2c(cc3c1CCC3)CCC2 gave a TGI (786-0 renal) of over 100 µM, a TGI (A498 renal) of 90.3 µM and a TGI (A549 NSCLC) of over 100 µM. It also gave a TGI (ACHN renal) of over 100 µM, a TGI (BT-549 breast) of over 100 µM and a TGI (CAKI-1 renal) of over 100 µM. The TGI (CCRF-CEM leukemia) was 53.3 µM, the TGI (COLO 205 colon) was over 100 µM and the TGI (DU-145 prostate) was over 100 µM. For the same molecule, the TGI (EKVX NSCLC) was over 100 µM, the TGI (HCC-2998 colon) was over 100 µM and the TGI (HCT-116 colon) was over 100 µM. It also gave a TGI (HCT-15 colon) of over 100 µM, a TGI (HL-60(TB) leukemia) of 38.4 µM and a TGI (HOP-62 NSCLC) of over 100 µM. It also gave a TGI (HS 578T breast) of over 100 µM, a TGI (HT29 colon) of over 100 µM and a TGI (IGROV1 ovarian) of over 100 µM. It also gave a TGI (K-562 leukemia) of over 100 µM, a TGI (KM12 colon) of over 100 µM and a TGI (LOX IMVI melanoma) of over 100 µM. It also gave a TGI (M14 melanoma) of over 100 µM, a TGI (MALME-3M melanoma) of over 100 µM and a TGI (MCF7 breast) of over 100 µM. For the same molecule, the TGI (MDA-MB-231 breast) was over 100 µM, the TGI (MDA-MB-435) was over 100 µM and the TGI (MDA-N) was over 100 µM. The TGI (MOLT-4 leukemia) was over 100 µM, the TGI (NCI-H226 lung) was over 100 µM and the TGI (NCI-H23 lung) was over 100 µM. The TGI (NCI-H460 lung) was over 100 µM, the TGI (NCI-H522 lung) was over 100 µM and the TGI (NCI/ADR-RES ovarian) was over 100 µM. For the same molecule, the TGI (OVCAR-3 ovarian) was over 100 µM, the TGI (OVCAR-4 ovarian) was over 100 µM and the TGI (OVCAR-5 ovarian) was over 100 µM. The TGI (OVCAR-8 ovarian) was over 100 µM, the TGI (PC-3 prostate) was over 100 µM and the TGI (RPMI-8226 leukemia) was 52.4 µM. It also gave a TGI (SF-268 CNS) of over 100 µM, a TGI (SF-295 CNS) of over 100 µM and a TGI (SF-539 CNS) of over 100 µM. The TGI (SK-MEL-2 melanoma) was 64.3 µM, the TGI (SK-MEL-28 melanoma) was over 100 µM and the TGI (SK-MEL-5 melanoma) was 29.5 µM. For the same molecule, the TGI (SK-OV-3 ovarian) was over 100 µM, the TGI (SN12C renal) was over 100 µM and the TGI (SNB-19 CNS) was over 100 µM. It also gave a TGI (SNB-75 CNS) of over 100 µM, a TGI (SR leukemia) of 44.8 µM and a TGI (SW-620 colon) of over 100 µM. For the same molecule, the TGI (T-47D breast) was 43.9 µM, the TGI (TK-10 renal) was over 100 µM and the TGI (U251 CNS) was over 100 µM. For the same molecule, the TGI (UACC-257 melanoma) was over 100 µM, the TGI (UACC-62 melanoma) was over 100 µM and the TGI (UO-31 renal) was over 100 µM.

Molecule COC(=O)CCc1cc(OC)c2c(c1)[C@H](C(=O)OC)[C@@H](c1ccc(O)c(OC)c1)O2 has a TGI (786-0 renal) of over 100 µM, a TGI (A498 renal) of 74.5 µM and a TGI (A549 NSCLC) of over 100 µM. For the same molecule, the TGI (ACHN renal) was over 100 µM, the TGI (BT-549 breast) was over 100 µM and the TGI (CCRF-CEM leukemia) was over 100 µM. It also gave a TGI (COLO 205 colon) of over 100 µM, a TGI (DU-145 prostate) of over 100 µM and a TGI (EKVX NSCLC) of over 100 µM. The TGI (HCC-2998 colon) was 50.5 µM, the TGI (HCT-116 colon) was over 100 µM and the TGI (HCT-15 colon) was over 100 µM. For the same molecule, the TGI (HL-60(TB) leukemia) was 36 µM, the TGI (HOP-62 NSCLC) was over 100 µM and the TGI (HOP-92 NSCLC) was over 100 µM. The TGI (HS 578T breast) was over 100 µM, the TGI (HT29 colon) was over 100 µM and the TGI (IGROV1 ovarian) was over 100 µM. It also gave a TGI (K-562 leukemia) of 50.4 µM, a TGI (KM12 colon) of over 100 µM and a TGI (LOX IMVI melanoma) of over 100 µM. For the same molecule, the TGI (M14 melanoma) was over 100 µM, the TGI (MALME-3M melanoma) was over 100 µM and the TGI (MCF7 breast) was over 100 µM. It also gave a TGI (MDA-MB-231 breast) of over 100 µM, a TGI (MDA-MB-435) of 39.5 µM and a TGI (MDA-N) of 44.6 µM. It also gave a TGI (MOLT-4 leukemia) of over 100 µM, a TGI (NCI-H226 lung) of over 100 µM and a TGI (NCI-H23 lung) of over 100 µM. It also gave a TGI (NCI-H460 lung) of over 100 µM, a TGI (NCI-H522 lung) of over 100 µM and a TGI (NCI/ADR-RES ovarian) of over 100 µM. It also gave a TGI (OVCAR-3 ovarian) of over 100 µM, a TGI (OVCAR-4 ovarian) of over 100 µM and a TGI (OVCAR-5 ovarian) of over 100 µM. It also gave a TGI (OVCAR-8 ovarian) of over 100 µM, a TGI (PC-3 prostate) of over 100 µM and a TGI (RPMI-8226 leukemia) of 55.5 µM. For the same molecule, the TGI (RXF 393 renal) was over 100 µM, the TGI (SF-268 CNS) was over 100 µM and the TGI (SF-295 CNS) was over 100 µM. For the same molecule, the TGI (SF-539 CNS) was over 100 µM, the TGI (SK-MEL-2 melanoma) was 84.6 µM and the TGI (SK-MEL-28 melanoma) was over 100 µM. It also gave a TGI (SK-MEL-5 melanoma) of over 100 µM, a TGI (SK-OV-3 ovarian) of over 100 µM and a TGI (SN12C renal) of over 100 µM. It also gave a TGI (SNB-19 CNS) of over 100 µM, a TGI (SNB-75 CNS) of over 100 µM and a TGI (SR leukemia) of 19.1 µM. The TGI (SW-620 colon) was over 100 µM, the TGI (T-47D breast) was over 100 µM and the TGI (TK-10 renal) was over 100 µM. For the same molecule, the TGI (U251 CNS) was over 100 µM, the TGI (UACC-257 melanoma) was over 100 µM and the TGI (UACC-62 melanoma) was over 100 µM. It also gave a TGI (UO-31 renal) of over 100 µM.

With NCCNCC1CCNCC1 the TGI (786-0 renal) was over 100 µM, the TGI (A498 renal) was over 100 µM and the TGI (A549 NSCLC) was over 100 µM. It also gave a TGI (ACHN renal) of over 100 µM, a TGI (BT-549 breast) of over 100 µM and a TGI (CAKI-1 renal) of over 100 µM. The TGI (COLO 205 colon) was over 100 µM, the TGI (DU-145 prostate) was over 100 µM and the TGI (EKVX NSCLC) was over 100 µM. The TGI (HCC-2998 colon) was over 100 µM, the TGI (HCT-116 colon) was over 100 µM and the TGI (HCT-15 colon) was over 100 µM. It also gave a TGI (HOP-62 NSCLC) of over 100 µM, a TGI (HOP-92 NSCLC) of over 100 µM and a TGI (HS 578T breast) of over 100 µM. The TGI (HT29 colon) was over 100 µM, the TGI (IGROV1 ovarian) was over 100 µM and the TGI (K-562 leukemia) was over 100 µM. For the same molecule, the TGI (KM12 colon) was over 100 µM, the TGI (LOX IMVI melanoma) was over 100 µM and the TGI (M14 melanoma) was over 100 µM. For the same molecule, the TGI (MALME-3M melanoma) was over 100 µM, the TGI (MCF7 breast) was over 100 µM and the TGI (MDA-MB-231 breast) was over 100 µM. The TGI (MDA-MB-435) was over 100 µM, the TGI (MDA-N) was over 100 µM and the TGI (MOLT-4 leukemia) was over 100 µM. For the same molecule, the TGI (NCI-H226 lung) was over 100 µM, the TGI (NCI-H23 lung) was over 100 µM and the TGI (NCI-H460 lung) was over 100 µM. For the same molecule, the TGI (NCI-H522 lung) was over 100 µM, the TGI (NCI/ADR-RES ovarian) was over 100 µM and the TGI (OVCAR-3 ovarian) was over 100 µM. It also gave a TGI (OVCAR-4 ovarian) of over 100 µM, a TGI (OVCAR-5 ovarian) of over 100 µM and a TGI (OVCAR-8 ovarian) of over 100 µM. For the same molecule, the TGI (PC-3 prostate) was over 100 µM, the TGI (RPMI-8226 leukemia) was over 100 µM and the TGI (RXF 393 renal) was over 100 µM. For the same molecule, the TGI (SF-268 CNS) was over 100 µM, the TGI (SF-295 CNS) was over 100 µM and the TGI (SF-539 CNS) was over 100 µM. The TGI (SK-MEL-2 melanoma) was over 100 µM, the TGI (SK-MEL-28 melanoma) was over 100 µM and the TGI (SK-MEL-5 melanoma) was over 100 µM. For the same molecule, the TGI (SK-OV-3 ovarian) was over 100 µM, the TGI (SN12C renal) was over 100 µM and the TGI (SNB-19 CNS) was over 100 µM. For the same molecule, the TGI (SNB-75 CNS) was over 100 µM, the TGI (SR leukemia) was over 100 µM and the TGI (SW-620 colon) was over 100 µM. The TGI (T-47D breast) was over 100 µM, the TGI (TK-10 renal) was over 100 µM and the TGI (U251 CNS) was over 100 µM. The TGI (UACC-257 melanoma) was over 100 µM, the TGI (UACC-62 melanoma) was over 100 µM and the TGI (UO-31 renal) was over 100 µM.
